Laboratory results reported in patent US7521563B2, “Hydroxamic acid derivative and medicine containing the same as active ingredient” (Shizuoka Coffein Co., Ltd., priority 2004, dated 2009).

How the values were obtained:
IL-6 production = IL-6 production suppression test in LPS-stimulated PMA-differentiated THP-1 cells (ELISA); format: cell-based, Human; details: for IL-6 production suppression rate (%): THP-1 cells, LPS 1 μg/mL, 24 hours
Procedure: (§1) Tests were conducted with reference to the method by G. Lozanski et al. (J. Rheumatol., Vol. 19, 921-926, 1992).
(§2) Using a 10% fetal calf serum (FCS)-added PRMI-1640 medium, THP-1 cells (Dainippon Pharmaceutical Co., Ltd.) were prepared in an amount of 10^6/mL, and inoculated on a 48-well microplate in an amount of 500 μL per well. 10^−8 M of phorbol 12-myristate 13-acetate (PMA) was added to the wells, and the cells were cultured for 24 hours to induce differentiation of the cells to macrophages.
(§3) 50 μL of test substance diluting liquid or DMSO diluting liquid was added to the wells, and the cells were preincubated by a CO2 incubator at 37° C. for 30 minutes. 5 μL of LPS (111 μg/mL) (final concentration: 1 μg/mL) was added to each well. Furthermore, wells with no LPS added to the DMSO diluting liquid were set. After the cells were cultured for 24 hours, they were centrifuged to take cell supernatants, and the IL-6 level was measured using the Human IL-6 ELISA kit (Biosource International), and TNFα was measured using the Human tumor necrosis factor-α ELISA kit (Biosource International), by the enzyme-linked immunosorbent assay (ELISA).

TNFα production = TNFα production suppression test in LPS-stimulated PMA-differentiated THP-1 cells (ELISA); format: cell-based, Human; details: for TNFα production suppression rate (%): THP-1 cells, LPS 1 μg/mL, 24 hours
Procedure: as §1, §2, §3

THP-1 cells = assay: Evaluation of cytotoxicity by the MTT method; format: cell-based; details: DMSO well = 100%
Procedure: Cytotoxicity was evaluated by the MTT method.
Specifically, a 0.5 mg/mL solution of 3-(4,5-dimethyl-2-thiazolyl)-2,5-diphenyl-2H-tetrazolium bromide (MTT, Sigma) prepared in a 10% fetal calf serum (FCS)-added PRMI-1640 medium was added in an amount of 100 μL per well to cells with culture supernatants removed in test example 1, and the cells were cultured for 3 hours. The culture solution was removed by centrifugal separation, 100 μL of methanol was added to each well, and the absorbance was measured at a wavelength of 570 nm after cytolysis.
The absorbances for the well to which the DMSO diluting liquid was added and the well to which no LPS was added are 100% and 0%, respectively, the absorbances for wells of different doses of test substances are expressed as percentages, and the results are shown in Table 4.

[1] = range of concentrations 1×10^−5-−9 M
[2] = active concentration 1 × 10^−6 M
[3] = concentration 1 × 10^−9 M (first column)
[4] = concentration 1 × 10^−9 M (second column, as printed)
[5] = active concentration 1 × 10^−7 M

SMILES | IL-6 production suppressing activity (IL-6 production; [1]) | TNFα production suppressing activity (TNFα production; [1]) | TNFα production suppression rate (%) (TNFα production; [2]) | Cytotoxicity test: absorbance (570 nm, MTT) expressed as percentage (THP-1 cells; concentration 1 × 10^−5 M) | Cytotoxicity test: absorbance (570 nm, MTT) expressed as percentage (THP-1 cells; concentration 1 × 10^−6 M) | Cytotoxicity test: absorbance (570 nm, MTT) expressed as percentage (THP-1 cells; concentration 1 × 10^−7 M) | Cytotoxicity test: absorbance (570 nm, MTT) expressed as percentage (THP-1 cells; [3]) | Cytotoxicity test: absorbance (570 nm, MTT) expressed as percentage (THP-1 cells; [4]) | IL-6 production suppression rate (%) (IL-6 production; [2]) | TNFα production suppression rate (%) (TNFα production; [5]) | IL-6 production suppression rate (%) (IL-6 production; [5])
O=C(O)CCCCCc1nc(-c2ccccc2)c(-c2ccccc2)o1 [4,5-diphenyl-2-oxazolehexanoic acid, reference compound] | no activity | no activity |  |  |  |  |  |  |  |  | 
O=C(CCCCCc1nc(-c2ccccc2)c(-c2ccc(F)cc2)s1)NO [Example 8, 5-(4-fluorophenyl)-N-hydroxy-4-phenyl-2-thiazolehexanamide] |  |  | 40% | 88.9% | 113.7% | 106.7% | 106.7% | 105.3% |  |  | 
O=C(CCCCCc1ncc(-c2ccc(Br)cc2)s1)NO [Example 20, 5-(4-bromophenyl)-N-hydroxy-2-thiazolehexanamide] |  |  |  | 82.3% | 97.6% | 102.0% | 95.6% | 104.0% | 64% | 44% | 
O=C(CCCCCCc1nc(-c2ccccc2)c(-c2ccccc2)o1)NO [Example 24, N-hydroxy-4,5-diphenyl-2-oxazoleheptanamide] |  |  |  | 83.8% | 91.8% | 88.1% | 96.4% | 83.9% |  |  | 50%
O=C(CCCCCc1nc(-c2ccccc2)c(-c2ccccc2)o1)NO [Example 25, N-hydroxy-4,5-diphenyl-2-oxazolehexanamide] |  |  |  | 78.9% | 83.6% | 87.6% | 85.8% | 91.9% |  |  | 50%
